Data taken from patent US7094911B2, “Biphenyl and biphenyl-analogous compounds as integrin antagonists” (Bayer Aktiengesellschaft, priority 1998, dated 2006).

| Compound | melting point |
| --- | --- |
| O=C(NCc1ccccc1)Nc1cccc(-c2ccc(C[C@H](NS(=O)(=O)CCCC(F)(F)F)C(=O)O)cc2)c1 [Example 1.161] | 163 °C |
| COc1ccc2[nH]/c(=N\C(=O)Nc3cccc(-c4ccc(C[C@H](NS(=O)(=O)c5c(C)cc(C)cc5C)C(=O)O)cc4)c3)[nH]c2c1 [Example 1.188] | 215 °C |
| CCCNC(=O)Nc1cccc(-c2cccc(CC(NS(=O)(=O)c3c(C)cc(C)cc3C)C(=O)O)c2)c1 (stereo not shown) [Example 1.192] | 136 °C |
| Cc1cc(C)c(S(=O)(=O)NC(Cc2cccc(-c3cccc(NC(=O)NCc4ccccn4)c3)c2)C(=O)O)c(C)c1 (stereo not shown) [Example 1.193] | 118 °C |
| Cc1cc(C)c(S(=O)(=O)N[C@@H](Cc2ccc(-c3cccc(NC(=O)Nc4nc5cc(Cl)ccc5o4)c3)cc2)C(=O)O)c(C)c1 [Example 1.195] | 220 °C |
| Cc1cc(C)c(S(=O)(=O)N[C@@H](Cc2ccc(-c3cccc(NC(=O)Nc4nc5ccc(C)cc5o4)c3)cc2)C(=O)O)c(C)c1 [Example 1.196] | 213 °C |
| Cc1cc(C)c(S(=O)(=O)N[C@@H](Cc2ccc(-c3cccc(NC(=O)Nc4nccs4)c3)cc2)C(=O)O)c(C)c1 [Example 1.198] | 212 °C |
| Cc1cc(C)c(S(=O)(=O)N[C@@H](Cc2ccc(-c3cccc(NC(=O)Nc4nc5ccc(C)cc5s4)c3)cc2)C(=O)O)c(C)c1 [Example 1.199] | 220 °C |
| COc1ccc2nc(NC(=O)Nc3cccc(-c4ccc(C[C@H](NS(=O)(=O)c5c(C)cc(C)cc5C)C(=O)O)cc4)c3)sc2c1 [Example 1.200] | 225 °C |
| Cc1cc(C)c(S(=O)(=O)NC(Cc2cccc(-c3ccc(NC(=O)N=c4[nH]c5ccccc5[nH]4)cc3)c2)C(=O)O)c(C)c1 (stereo not shown) [Example 1.202] | 193 °C |
| CCCNC(=O)Nc1ccc(-c2cccc(CC(NS(=O)(=O)c3c(C)cc(C)cc3C)C(=O)O)c2)cc1 (stereo not shown) [Example 1.203] | 119 °C |
| Cc1cc(C)c(S(=O)(=O)N[C@@H](Cc2ccc(-c3cccc(NC(=O)Nc4nncs4)c3)cc2)C(=O)O)c(C)c1 [Example 1.204] | 202 °C |
| Cc1cc(C)c(S(=O)(=O)N[C@@H](Cc2ccc(-c3cccc(NC(=O)NCCSC(F)(F)F)c3)cc2)C(=O)O)c(C)c1 [Example 1.207] | 138 °C |
| Cc1cc(C)c(S(=O)(=O)N[C@@H](Cc2ccc(-c3cccc(NC(=O)NCC(F)(F)C(F)(F)F)c3)cc2)C(=O)O)c(C)c1 [Example 1.211] | 126 °C |
| Cc1cc(C)c(S(=O)(=O)N[C@@H](Cc2ccc(-c3cccc(NC(=O)NCc4ccc(C(F)(F)F)cc4)c3)cc2)C(=O)O)c(C)c1 [Example 1.212] | 154 °C |
| CC1(C)C2CC[C@@]1(CS(=O)(=O)N[C@@H](Cc1ccc(-c3ccc(NC(=O)N=c4[nH]c5ccccc5[nH]4)cc3)cc1)C(=O)O)C(=O)C2 [Example 1.215] | 222 °C |
| O=C(O)CNS(=O)(=O)c1cccc(-c2cccc(NC(=O)Nc3nc4ccccc4[nH]3)c2)c1 [Example 4.38] | 172 °C |
| O=C(O)CC(NS(=O)(=O)c1cccc(-c2cccc(NC(=O)Nc3nc4ccccc4[nH]3)c2)c1)c1cccnc1 (stereo not shown) [Example 4.41] | 170 °C |
| CCCCNC(=O)Nc1cccc(-c2ccc(OC)c(S(=O)(=O)NC(CC(=O)O)c3ccccc3)c2)c1 (stereo not shown) [Example 4.63] | 190 °C |
| CCCCNC(=O)Nc1ccc(-c2ccc(OC)c(S(=O)(=O)NC(CC(=O)O)c3ccccc3)c2)cc1 (stereo not shown) [Example 4.65] | 125 °C |
| COc1ccc(-c2ccc(NC(=O)NCc3ccncc3)cc2)cc1S(=O)(=O)NC(CC(=O)O)c1ccccc1 (stereo not shown) [Example 4.66] | 145 °C |

Continued, values first:

| melting point | Compound |
| --- | --- |
| 202 °C | O=C(Nc1cccc(-c2ccc(C[C@H](NS(=O)(=O)CCCC(F)(F)F)C(=O)O)cc2)c1)NC1CC1 [Example 1.162] |
| 256 °C (dec.) | Cc1cc(C)c(S(=O)(=O)N[C@@H](Cc2ccc(-c3cccc(NC(=O)/N=c4\[nH]c5ccc(C(=O)O)cc5[nH]4)c3)cc2)C(=O)O)c(C)c1 [Example 1.189] |
| 202 °C | Cc1cc(C)c(S(=O)(=O)N[C@@H](Cc2ccc(-c3cccc(NC(=O)N=c4[nH]c5cc(C)c(C)cc5[nH]4)c3)cc2)C(=O)O)c(C)c1 [Example 1.190] |
| 214 °C | Cc1cc(C)c(S(=O)(=O)NC(Cc2cccc(-c3cccc(NC(=O)NC4CC4)c3)c2)C(=O)O)c(C)c1 (stereo not shown) [Example 1.191] |
| 207 °C | Cc1cc(C)c(S(=O)(=O)NC(Cc2cccc(-c3cccc(NC(=O)Nc4ccncc4)c3)c2)C(=O)O)c(C)c1 (stereo not shown) [Example 1.194] |
| 198 °C | Cc1cc(C)c(S(=O)(=O)N[C@@H](Cc2ccc(-c3cccc(NC(=O)Nc4nc5ccccc5s4)c3)cc2)C(=O)O)c(C)c1 [Example 1.197] |
| 188 °C | Cc1cc(C)c(S(=O)(=O)NC(Cc2cccc(-c3ccc(NC(=O)Nc4ccncc4)cc3)c2)C(=O)O)c(C)c1 (stereo not shown) [Example 1.201] |
| 289 °C | Cc1cc(C)c(S(=O)(=O)N[C@@H](Cc2ccc(-c3cccc(N)c3)cc2)C(=O)O)c(C)c1 [Example 1.205] |
| 124 °C | Cc1cc(C)c(S(=O)(=O)N[C@@H](Cc2ccc(-c3cccc(NC(=O)NCC(F)(F)F)c3)cc2)C(=O)O)c(C)c1 [Example 1.206] |
| 189 °C | Cc1cc(C)c(S(=O)(=O)N[C@@H](Cc2ccc(-c3cccc(NC(=O)Nc4cc(C)on4)c3)cc2)C(=O)O)c(C)c1 [Example 1.208] |
| 180 °C | Cc1cc(C)c(S(=O)(=O)N[C@@H](Cc2ccc(-c3cccc(NC(=O)Nc4cc(C(C)(C)C)on4)c3)cc2)C(=O)O)c(C)c1 [Example 1.209] |
| 207 °C | Cc1cc(C)c(S(=O)(=O)N[C@@H](Cc2ccc(-c3cccc(NC(=O)N=c4[nH]c5ccccc5[nH]4)c3)cc2)C(=O)O)c(C)c1 [Example 1.210] |
| 202 °C | CC1(C)C2CC[C@@]1(CS(=O)(=O)N[C@@H](Cc1ccc(-c3ccc(NC(=O)NCc4ccccn4)cc3)cc1)C(=O)O)C(=O)C2 [Example 1.213] |
| 207 °C | CC1(C)C2CC[C@@]1(CS(=O)(=O)N[C@@H](Cc1ccc(-c3ccc(NC(=O)Nc4ccncc4)cc3)cc1)C(=O)O)C(=O)C2 [Example 1.214] |
| 144 °C | O=C(O)CC(NS(=O)(=O)c1cccc(-c2cccc(NC(=O)NC3CC3)c2)c1)c1cccnc1 (stereo not shown) [Example 4.39] |
| 176 °C | O=C(O)CC(NS(=O)(=O)c1cccc(-c2cccc(NC(=O)NCc3ccccn3)c2)c1)c1cccnc1 (stereo not shown) [Example 4.40] |
| 137 °C | COc1ccc(-c2ccc(NC(=O)NCCc3ccccn3)cc2)cc1S(=O)(=O)NC(CC(=O)O)c1ccccc1 (stereo not shown) [Example 4.64] |
| 161 °C | COc1ccc(-c2ccc(NC(=O)NCc3cccnc3)cc2)cc1S(=O)(=O)NC(CC(=O)O)c1ccccc1 (stereo not shown) [Example 4.67] |
| 115 °C | COc1ccc(-c2ccc(NC(=O)NC(C)C)cc2)cc1S(=O)(=O)NC(CC(=O)O)c1ccccc1 (stereo not shown) [Example 4.68] |
| 158 °C | COc1ccc(-c2ccc(NC(=O)NCc3ccccn3)cc2)cc1S(=O)(=O)NC(CC(=O)O)c1ccccc1 (stereo not shown) [Example 4.69] |
| 150 °C | COc1ccc(-c2ccc(NC(=O)NCc3ccccc3)cc2)cc1S(=O)(=O)NC(CC(=O)O)c1ccccc1 (stereo not shown) [Example 4.70] |
| 134 °C | CCNC(=O)Nc1ccc(-c2ccc(OC)c(S(=O)(=O)NC(CC(=O)O)c3ccccc3)c2)cc1 (stereo not shown) [Example 4.71] |
